Measurements reported in ChEMBL document CHEMBL5715260, “Selectivity Literature for EUbOPEN Chemogenomic Library” (2024).
Where a SMILES comes first, the peptide text is derived from it. [ ]: non-standard residue; d: D form. The star is where a group is joined. Benzoyl(4-tBu) = CC(C)(C)c1ccc(C(=O)*)cc1; Lys(Et2) = CCN(CC)CCCC[C@H](N)C(=O)O

Legend:
[1] = biological target: Substance-K receptor (Homo sapiens) (UniProt P21452); assay: Selectivity interaction (NIMH PDSP panel) EUB0002346a TACR2; design: recommended concentration 1 uM; conditions: at 10 µM
[2] = biological target: Substance-P receptor (Homo sapiens) (UniProt P25103); assay: Selectivity interaction (NIMH PDSP panel) EUB0002346a TACR1; design: recommended concentration 1 uM; conditions: at 10 µM
[3] = biological target: Substance-K receptor (Homo sapiens) (UniProt P21452); assay: Selectivity interaction (CEREP panel) EUB0002346a TACR2; design: recommended concentration 1 uM; conditions: at 10 µM
Mu-type opioid receptor [4] = biological target: T1, Mu-type opioid receptor (Homo sapiens, UniProt P35372); assay: Selectivity interaction (CEREP panel) EUB0002346a OPRM1; design: recommended concentration 1 uM; conditions: at 10 µM
[5] = biological target: Vasopressin V1a receptor (Homo sapiens) (UniProt P37288); assay: Selectivity interaction (NIMH PDSP panel) EUB0002346a AVPR1A; design: recommended concentration 1 uM; conditions: at 10 µM
[6] = biological target: Vasopressin V1b receptor (Homo sapiens) (UniProt P47901); assay: Selectivity interaction (NIMH PDSP panel) EUB0002346a AVPR1B; design: recommended concentration 1 uM; conditions: at 10 µM
Mu-type opioid receptor [7] = biological target: T1, Mu-type opioid receptor; assay: Selectivity interaction (NIMH PDSP panel) EUB0002346a OPRM1; design: recommended concentration 1 uM; conditions: at 10 µM
[8] = biological target: T2, Kappa-type opioid receptor (Homo sapiens, UniProt P41145); assay: Selectivity interaction (NIMH PDSP panel) EUB0002346a OPRK1; design: recommended concentration 1 uM; conditions: at 10 µM
[9] = biological target: Vasopressin V2 receptor (Homo sapiens) (UniProt P30518); assay: Selectivity interaction (NIMH PDSP panel) EUB0002346a AVPR2; design: recommended concentration 1 uM; conditions: at 10 µM
[10] = biological target: Delta-type opioid receptor (Homo sapiens, UniProt P41143); assay: Selectivity interaction (NIMH PDSP panel) EUB0002346a OPRD1; design: recommended concentration 1 uM; conditions: at 10 µM
[11] = biological target: Vasopressin V1a receptor (Homo sapiens) (UniProt P37288); assay: Selectivity interaction (CEREP panel) EUB0002346a AVPR1A; design: recommended concentration 1 uM; conditions: at 10 µM
[12] = biological target: T2, Kappa-type opioid receptor; assay: Selectivity interaction (CEREP panel) EUB0002346a OPRK1; design: recommended concentration 1 uM; conditions: at 10 µM
[13] = biological target: Nuclear receptor subfamily 4immunitygroup A member 1 (Homo sapiens) (UniProt P22736); assay: Selectivity interaction (Reporter gene assay) EUB0002355a NR4A1; design: recommended concentration 3 uM
[14] = biological target: Nuclear receptor subfamily 2 group E member 1 (Homo sapiens) (UniProt Q9Y466); assay: Selectivity interaction (Reporter gene assay) EUB0002355a NR2E1; design: recommended concentration 3 uM
[15] = biological target: Alpha trans-inducing protein (Human alphaherpesvirus 1) (UniProt A0A5J6DW59); assay: Selectivity interaction (Reporter gene assay) EUB0002355a UL48; design: recommended concentration 3 uM
[16] = biological target: T3, Retinoic acid receptor RXR-alpha (Homo sapiens) (UniProt P19793); assay: Selectivity interaction (Reporter gene assay) EUB0002355a RXRA; design: recommended concentration 3 uM; conditions: reference bexarotene 1 uM, Selectivity number of off-targets 0.0, Selectivity number of targets 1.0, Source Knowledge inhouse
T3 sequence (whole entry): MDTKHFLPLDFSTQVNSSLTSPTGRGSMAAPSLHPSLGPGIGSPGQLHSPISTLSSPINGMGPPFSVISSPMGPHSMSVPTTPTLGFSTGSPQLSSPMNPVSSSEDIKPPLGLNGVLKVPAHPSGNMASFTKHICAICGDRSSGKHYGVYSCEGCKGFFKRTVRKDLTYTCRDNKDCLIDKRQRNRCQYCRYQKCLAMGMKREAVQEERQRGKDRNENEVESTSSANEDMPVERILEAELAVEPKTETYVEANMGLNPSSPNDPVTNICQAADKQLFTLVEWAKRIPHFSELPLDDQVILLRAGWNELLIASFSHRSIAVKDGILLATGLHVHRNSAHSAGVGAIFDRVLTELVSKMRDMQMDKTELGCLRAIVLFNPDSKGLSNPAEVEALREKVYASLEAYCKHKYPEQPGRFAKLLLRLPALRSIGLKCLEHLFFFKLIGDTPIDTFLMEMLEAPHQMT

[17] = biological target: T4, Hepatocyte nuclear factor 4-alpha (Homo sapiens) (UniProt P41235); assay: Selectivity interaction (Reporter gene assay) EUB0002355a HNF4A; design: recommended concentration 3 uM
T4 sequence (whole entry): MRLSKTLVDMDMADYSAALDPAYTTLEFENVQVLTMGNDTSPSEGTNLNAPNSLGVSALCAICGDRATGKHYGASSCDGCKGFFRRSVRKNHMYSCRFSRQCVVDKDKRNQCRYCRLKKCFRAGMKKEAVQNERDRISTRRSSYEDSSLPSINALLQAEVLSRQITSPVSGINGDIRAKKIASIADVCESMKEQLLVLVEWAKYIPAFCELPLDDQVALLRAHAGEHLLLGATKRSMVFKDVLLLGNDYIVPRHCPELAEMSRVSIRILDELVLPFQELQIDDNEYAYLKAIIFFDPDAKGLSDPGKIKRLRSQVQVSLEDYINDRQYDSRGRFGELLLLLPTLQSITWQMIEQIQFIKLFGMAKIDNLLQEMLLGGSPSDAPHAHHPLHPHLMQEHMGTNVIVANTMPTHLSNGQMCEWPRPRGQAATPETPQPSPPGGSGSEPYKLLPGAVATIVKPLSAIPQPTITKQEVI

[18] = biological target: Steroidogenic factor 1 (Homo sapiens) (UniProt Q13285); assay: Selectivity interaction (Reporter gene assay) EUB0002355a NR5A1; design: recommended concentration 3 uM
[19] = biological target: T5, Nuclear receptor subfamily 2 group C member 1 (Homo sapiens) (UniProt P13056); assay: Selectivity interaction (Reporter gene assay) EUB0002355a NR2C1; design: recommended concentration 3 uM
T5 sequence (whole entry): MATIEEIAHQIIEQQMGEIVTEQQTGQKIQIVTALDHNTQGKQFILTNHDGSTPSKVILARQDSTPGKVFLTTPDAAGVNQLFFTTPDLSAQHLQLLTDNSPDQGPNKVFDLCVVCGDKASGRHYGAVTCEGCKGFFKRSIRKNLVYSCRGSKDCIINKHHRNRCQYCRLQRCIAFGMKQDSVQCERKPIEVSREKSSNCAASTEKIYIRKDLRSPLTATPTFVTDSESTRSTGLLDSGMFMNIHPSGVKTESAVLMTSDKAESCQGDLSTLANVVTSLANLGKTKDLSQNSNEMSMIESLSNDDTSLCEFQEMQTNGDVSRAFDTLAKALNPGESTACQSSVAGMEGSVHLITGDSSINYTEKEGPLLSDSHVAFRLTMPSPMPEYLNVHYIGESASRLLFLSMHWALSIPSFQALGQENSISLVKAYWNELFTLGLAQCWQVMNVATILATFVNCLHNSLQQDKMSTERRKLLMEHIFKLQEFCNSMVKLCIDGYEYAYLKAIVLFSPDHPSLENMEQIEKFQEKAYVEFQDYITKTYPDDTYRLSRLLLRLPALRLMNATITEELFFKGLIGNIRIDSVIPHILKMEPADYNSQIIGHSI

[20] = biological target: Bromodomain-containing protein 4 (Homo sapiens, UniProt O60885); assay: Selectivity interaction (Proteomics) EUB0000269cCl BRD4; design: recommended concentration 1 uM
[21] = biological target: Lysine-specific histone demethylase 2 (Homo sapiens, UniProt Q8NB78); assay: Selectivity interaction (Proteomics) EUB0000269cCl KDM1B/LSD2; design: recommended concentration 1 uM
[22] = biological target: Bromodomain-containing protein 1 (Homo sapiens) (UniProt O95696); conditions: at 1 µM
[23] = biological target: Bromodomain and PHD finger-containing protein 3 (Homo sapiens) (UniProt Q9ULD4); conditions: at 1 µM
[24] = biological target: T6, Bromodomain-containing protein 9 (Homo sapiens, UniProt Q9H8M2); assay: (§1) Selectivity interaction (Bromodomain panel) EUB0000233b BRD9; design: recommended concentration 1 uM
T6 sequence (Q9H8M2 whole entry): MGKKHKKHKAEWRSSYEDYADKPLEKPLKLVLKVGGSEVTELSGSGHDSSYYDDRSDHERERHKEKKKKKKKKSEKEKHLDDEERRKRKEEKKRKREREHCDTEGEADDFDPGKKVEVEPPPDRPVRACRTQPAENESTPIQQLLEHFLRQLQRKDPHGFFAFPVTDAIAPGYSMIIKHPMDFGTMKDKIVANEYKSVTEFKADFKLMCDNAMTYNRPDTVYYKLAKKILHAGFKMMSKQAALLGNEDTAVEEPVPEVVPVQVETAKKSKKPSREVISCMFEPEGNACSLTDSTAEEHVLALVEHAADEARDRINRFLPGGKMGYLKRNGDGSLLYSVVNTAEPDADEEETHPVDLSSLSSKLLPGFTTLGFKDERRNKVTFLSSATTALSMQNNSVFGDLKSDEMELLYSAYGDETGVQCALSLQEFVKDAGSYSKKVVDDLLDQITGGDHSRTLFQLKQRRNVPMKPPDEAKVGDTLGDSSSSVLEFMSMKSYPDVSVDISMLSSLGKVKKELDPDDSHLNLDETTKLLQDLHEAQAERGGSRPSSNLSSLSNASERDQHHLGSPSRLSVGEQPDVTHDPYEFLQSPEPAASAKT

[25] = biological target: T6, Bromodomain-containing protein 9; assay: as §1; design: recommended concentration 1 uM; remark: listed apart in the source
[26] = biological target: T6, Bromodomain-containing protein 9; assay: as §1; design: recommended concentration 1 uM; remark: listed apart in the source

T1 sequence (P35372 whole entry): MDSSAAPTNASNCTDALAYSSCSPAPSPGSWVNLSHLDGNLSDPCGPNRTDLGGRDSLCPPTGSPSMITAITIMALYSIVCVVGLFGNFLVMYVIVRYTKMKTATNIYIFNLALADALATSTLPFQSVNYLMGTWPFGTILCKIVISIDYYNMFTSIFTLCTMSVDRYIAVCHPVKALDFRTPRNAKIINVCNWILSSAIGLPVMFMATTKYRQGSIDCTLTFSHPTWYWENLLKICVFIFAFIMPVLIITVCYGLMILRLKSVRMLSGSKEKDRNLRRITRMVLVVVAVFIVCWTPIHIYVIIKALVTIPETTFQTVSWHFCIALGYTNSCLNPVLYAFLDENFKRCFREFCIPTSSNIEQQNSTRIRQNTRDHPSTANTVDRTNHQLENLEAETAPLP
T2 sequence (P41145 whole entry): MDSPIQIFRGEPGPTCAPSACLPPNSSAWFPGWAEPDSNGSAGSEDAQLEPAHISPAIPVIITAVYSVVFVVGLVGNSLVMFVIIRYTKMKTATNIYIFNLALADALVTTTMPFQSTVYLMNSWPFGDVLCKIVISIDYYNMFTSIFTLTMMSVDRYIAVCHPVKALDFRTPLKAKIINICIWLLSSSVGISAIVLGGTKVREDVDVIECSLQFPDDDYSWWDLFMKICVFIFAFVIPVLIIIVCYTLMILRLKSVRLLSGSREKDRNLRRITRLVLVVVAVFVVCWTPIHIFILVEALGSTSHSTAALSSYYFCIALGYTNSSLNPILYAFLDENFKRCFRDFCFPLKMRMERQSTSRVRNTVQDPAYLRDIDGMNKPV
Sequence of Substance-K receptor (Homo sapiens) (P21452 whole entry): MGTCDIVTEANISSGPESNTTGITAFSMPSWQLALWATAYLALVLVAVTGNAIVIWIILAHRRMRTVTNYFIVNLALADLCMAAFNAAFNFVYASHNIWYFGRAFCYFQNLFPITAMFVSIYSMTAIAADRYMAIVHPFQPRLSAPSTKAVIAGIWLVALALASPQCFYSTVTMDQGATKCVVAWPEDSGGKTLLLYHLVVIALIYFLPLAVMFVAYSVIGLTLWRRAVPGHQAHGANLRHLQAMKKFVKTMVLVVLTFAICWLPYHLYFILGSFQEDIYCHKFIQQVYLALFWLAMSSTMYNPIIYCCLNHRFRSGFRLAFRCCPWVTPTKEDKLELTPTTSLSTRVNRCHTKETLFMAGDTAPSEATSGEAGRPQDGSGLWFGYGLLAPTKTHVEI
Sequence of Vasopressin V1a receptor (Homo sapiens) (P37288 whole entry, looked up): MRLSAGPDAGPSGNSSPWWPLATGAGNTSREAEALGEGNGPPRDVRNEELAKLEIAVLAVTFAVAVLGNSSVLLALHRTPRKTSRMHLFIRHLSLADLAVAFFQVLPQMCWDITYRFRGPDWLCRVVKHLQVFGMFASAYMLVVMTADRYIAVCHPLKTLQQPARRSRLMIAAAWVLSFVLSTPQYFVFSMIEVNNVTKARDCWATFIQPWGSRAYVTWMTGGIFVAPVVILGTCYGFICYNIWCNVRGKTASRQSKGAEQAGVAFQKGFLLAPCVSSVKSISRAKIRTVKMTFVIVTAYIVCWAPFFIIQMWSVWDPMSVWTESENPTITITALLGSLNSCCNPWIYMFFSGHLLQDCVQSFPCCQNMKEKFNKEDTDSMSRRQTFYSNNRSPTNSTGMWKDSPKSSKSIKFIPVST
Sequence of Bromodomain-containing protein 1 (Homo sapiens) (O95696 whole entry): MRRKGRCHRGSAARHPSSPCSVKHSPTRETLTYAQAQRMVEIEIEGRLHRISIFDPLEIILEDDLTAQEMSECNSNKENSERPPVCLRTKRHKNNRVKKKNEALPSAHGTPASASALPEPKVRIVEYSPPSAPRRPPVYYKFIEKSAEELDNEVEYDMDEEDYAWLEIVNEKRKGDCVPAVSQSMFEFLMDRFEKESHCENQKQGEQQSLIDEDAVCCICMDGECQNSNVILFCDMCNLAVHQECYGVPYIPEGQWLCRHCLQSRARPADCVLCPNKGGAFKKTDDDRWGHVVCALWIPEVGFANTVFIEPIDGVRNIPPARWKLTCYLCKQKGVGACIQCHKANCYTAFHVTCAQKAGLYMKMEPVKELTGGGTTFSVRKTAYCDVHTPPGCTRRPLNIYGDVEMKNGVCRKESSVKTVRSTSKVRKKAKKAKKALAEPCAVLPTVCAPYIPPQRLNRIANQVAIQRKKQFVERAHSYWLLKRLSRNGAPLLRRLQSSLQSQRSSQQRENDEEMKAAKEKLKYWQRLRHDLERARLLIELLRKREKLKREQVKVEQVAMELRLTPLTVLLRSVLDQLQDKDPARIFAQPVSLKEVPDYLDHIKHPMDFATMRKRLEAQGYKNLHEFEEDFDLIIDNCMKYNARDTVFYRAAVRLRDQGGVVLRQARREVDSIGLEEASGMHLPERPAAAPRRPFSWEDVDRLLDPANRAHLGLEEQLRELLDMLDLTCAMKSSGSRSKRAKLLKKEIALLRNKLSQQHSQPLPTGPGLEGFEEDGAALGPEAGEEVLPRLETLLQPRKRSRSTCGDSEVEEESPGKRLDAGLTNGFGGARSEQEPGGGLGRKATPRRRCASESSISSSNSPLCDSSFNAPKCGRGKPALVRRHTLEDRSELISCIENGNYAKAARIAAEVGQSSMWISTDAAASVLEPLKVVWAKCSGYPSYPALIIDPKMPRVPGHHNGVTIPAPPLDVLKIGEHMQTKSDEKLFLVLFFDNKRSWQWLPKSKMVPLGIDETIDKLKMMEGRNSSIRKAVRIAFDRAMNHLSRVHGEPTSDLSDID
Sequence of Bromodomain and PHD finger-containing protein 3 (Homo sapiens) (Q9ULD4 whole entry): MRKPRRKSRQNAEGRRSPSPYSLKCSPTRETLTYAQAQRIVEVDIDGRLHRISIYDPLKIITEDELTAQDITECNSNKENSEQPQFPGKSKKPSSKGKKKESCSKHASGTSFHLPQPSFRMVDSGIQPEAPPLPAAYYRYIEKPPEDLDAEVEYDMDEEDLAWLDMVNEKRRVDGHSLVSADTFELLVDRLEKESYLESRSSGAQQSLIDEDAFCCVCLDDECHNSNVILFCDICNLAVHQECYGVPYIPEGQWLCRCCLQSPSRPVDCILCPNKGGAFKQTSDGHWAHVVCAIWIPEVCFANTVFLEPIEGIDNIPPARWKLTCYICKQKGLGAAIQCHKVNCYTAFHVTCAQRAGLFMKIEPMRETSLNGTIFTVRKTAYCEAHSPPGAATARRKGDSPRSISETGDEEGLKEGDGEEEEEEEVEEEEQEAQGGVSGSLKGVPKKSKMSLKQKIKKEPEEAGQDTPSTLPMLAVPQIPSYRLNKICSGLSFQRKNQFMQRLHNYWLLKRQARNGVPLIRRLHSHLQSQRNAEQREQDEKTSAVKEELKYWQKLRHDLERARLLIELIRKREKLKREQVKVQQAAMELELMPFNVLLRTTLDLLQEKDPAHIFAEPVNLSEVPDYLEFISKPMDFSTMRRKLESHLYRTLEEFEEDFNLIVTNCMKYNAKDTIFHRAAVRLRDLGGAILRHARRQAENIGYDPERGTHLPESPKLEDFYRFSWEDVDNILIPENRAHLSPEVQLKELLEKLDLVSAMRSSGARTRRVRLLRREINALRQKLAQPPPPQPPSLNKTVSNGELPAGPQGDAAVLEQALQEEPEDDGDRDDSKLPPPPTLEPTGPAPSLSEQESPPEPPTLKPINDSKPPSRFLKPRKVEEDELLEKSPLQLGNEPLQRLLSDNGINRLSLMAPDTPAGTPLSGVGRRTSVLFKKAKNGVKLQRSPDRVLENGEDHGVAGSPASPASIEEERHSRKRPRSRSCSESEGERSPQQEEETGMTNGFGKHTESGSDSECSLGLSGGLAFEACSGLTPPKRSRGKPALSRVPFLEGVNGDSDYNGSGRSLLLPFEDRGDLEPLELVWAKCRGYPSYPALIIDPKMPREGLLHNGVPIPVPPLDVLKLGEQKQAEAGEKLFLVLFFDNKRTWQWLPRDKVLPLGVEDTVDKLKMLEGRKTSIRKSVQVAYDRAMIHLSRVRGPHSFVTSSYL
Sequence of Lysine-specific histone demethylase 2 (Q8NB78 whole entry): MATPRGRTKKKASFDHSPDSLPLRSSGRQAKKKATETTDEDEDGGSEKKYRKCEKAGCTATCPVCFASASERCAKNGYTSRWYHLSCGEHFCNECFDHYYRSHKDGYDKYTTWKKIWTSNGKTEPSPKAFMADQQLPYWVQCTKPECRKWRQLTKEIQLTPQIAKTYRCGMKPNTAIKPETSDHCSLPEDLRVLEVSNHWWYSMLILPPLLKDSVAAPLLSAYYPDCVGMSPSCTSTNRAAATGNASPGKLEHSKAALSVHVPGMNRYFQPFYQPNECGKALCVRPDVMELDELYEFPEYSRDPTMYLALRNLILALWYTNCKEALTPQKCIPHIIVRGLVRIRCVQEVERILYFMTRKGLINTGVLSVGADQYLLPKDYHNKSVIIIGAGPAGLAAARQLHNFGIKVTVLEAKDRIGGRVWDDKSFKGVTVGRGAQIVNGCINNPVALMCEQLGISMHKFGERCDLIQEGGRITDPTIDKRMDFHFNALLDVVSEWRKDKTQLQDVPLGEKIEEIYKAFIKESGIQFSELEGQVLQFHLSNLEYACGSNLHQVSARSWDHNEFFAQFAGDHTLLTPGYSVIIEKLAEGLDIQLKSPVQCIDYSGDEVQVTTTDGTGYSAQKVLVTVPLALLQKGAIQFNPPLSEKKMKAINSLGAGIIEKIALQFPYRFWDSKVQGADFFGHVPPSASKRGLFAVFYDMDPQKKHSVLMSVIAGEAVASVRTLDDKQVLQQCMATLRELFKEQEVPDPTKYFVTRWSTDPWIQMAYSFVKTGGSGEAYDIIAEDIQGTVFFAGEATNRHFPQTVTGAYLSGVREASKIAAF
Sequence of Vasopressin V2 receptor (Homo sapiens) (P30518 whole entry): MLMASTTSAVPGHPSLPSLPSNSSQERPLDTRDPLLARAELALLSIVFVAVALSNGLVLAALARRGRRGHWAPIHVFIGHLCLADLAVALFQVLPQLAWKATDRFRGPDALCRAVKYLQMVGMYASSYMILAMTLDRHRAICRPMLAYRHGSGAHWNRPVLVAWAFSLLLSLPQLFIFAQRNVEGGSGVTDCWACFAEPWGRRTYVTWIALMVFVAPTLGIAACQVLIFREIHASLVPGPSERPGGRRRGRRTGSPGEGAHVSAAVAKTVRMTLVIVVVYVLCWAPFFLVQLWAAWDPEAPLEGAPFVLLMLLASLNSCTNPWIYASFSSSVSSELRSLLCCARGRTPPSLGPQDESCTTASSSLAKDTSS

**Q.** `CCN(CC)CCCC[C@H](NC(=O)[C@H](CC(C)C)NC(=O)[C@H](C)NC(=O)[C@H](Cc1ccccc1)NC(=O)c1ccc(C(C)(C)C)cc1)C(=O)N[C@@H](CO)C(=O)OC` ({Benzoyl(4-tBu)}-FAL[Lys(Et2)]S-OMe) was tested. Which Inhibition of control [1] did it give?
**A.** > 50%

**Q.** What about the Inhibition of control [2] of the same molecule?
**A.** > 50%

**Q.** What about the Inhibition of control [3] of the same molecule?
**A.** 75%

**Q.** What about the Inhibition of control (Mu-type opioid receptor [4]) of the same molecule?
**A.** 51%

**Q.** And the Inhibition of control [5]?
**A.** > 50%

**Q.** What about the Inhibition of control [6] of the same molecule?
**A.** > 50%

**Q.** What about the Inhibition of control (Mu-type opioid receptor [7]) of the same molecule?
**A.** > 50%

**Q.** What about the Inhibition of control [8] of the same molecule?
**A.** > 50%

**Q.** And the Inhibition of control [9]?
**A.** > 50%

**Q.** What about the Inhibition of control [10] of the same molecule?
**A.** > 50%

**Q.** And the Inhibition of control [11]?
**A.** 85%

**Q.** And the Inhibition of control [12]?
**A.** 91%

**Q.** Which Fold activation [13] does the source give for `Cc1oc2ccccc2c1Cc1cc(I)c(OCC(=O)O)c(I)c1` here?
**A.** 1.02

**Q.** And the Remaining activity [14]?
**A.** 0.732

**Q.** And the P-value [15]?
**A.** 0.0128

**Q.** What about the Relative activation [16] of the same molecule?
**A.** 0.91%

**Q.** What about the Remaining activity [17] of the same molecule?
**A.** 0.739

**Q.** What about the Remaining activity [18] of the same molecule?
**A.** 0.684

**Q.** What about the Fold activation [19] of the same molecule?
**A.** 1.28

**Q.** What does the source list for `Cc1cc(CN)cc(C)c1-c1ncn(C)c1-c1ccnc2cc(F)ccc12`?
**A.** IC50 [20]: > 1000 µM; IC50 [21]: > 100 µM

**Q.** For `CCCOc1cc(OCCCCN(C)C)cc(Oc2cc3c(cc2NS(=O)(=O)c2ccc(OC)c(OC)c2)n(C)c(=O)n3C)c1`, which Control [22] is on record?
**A.** 0%

**Q.** And the Control [23]?
**A.** 0%

**Q.** For `CN(C)CCCOc1ccc(-c2cc(NCCCn3cccn3)nc(S(C)(=O)=O)n2)cc1`, which IC50 [24] is on record?
**A.** 1.4 µM

**Q.** And the IC50 [25]?
**A.** 1.4 µM

**Q.** What about the IC50 [26] of the same molecule?
**A.** 1.4 µM
